Target: recombinant human mGluR2 (Homo sapiens (Human), UniProt Q14416)
Assay: FLIPR Ca2+ mobilization assay: inhibition of glutamate-dependent mGluR2 activity
Type: cell-based
Details: CHO dhfr- cells stably expressing recombinant human mGluR2 and Gα16, Fluo-4 AM, FLIPR384; inhibition of response to 2,500 nM glutamate
Description: Inhibition constants (IC50s; the concentration of compound required to provide 50% of maximal activity) are determined as follows. The compounds of the invention were tested in a fluorescence laser imaging plate reader based assay. This assay is a common functional assay to monitor Ca^2+ mobilization in whole cells expressing recombinant receptor coupled with a promiscuous G-protein. CHO (Chinese hamster ovary) dhfr− cells stably expressing recombinant human mGluR2 and Gα16 loaded with Fluo-4 AM (Invitrogen, Carlsbad Calif., USA) were treated with various concentrations of each of the tested compounds of the invention and the Ca^2+ response was monitored on a FLIPR384 instrument (Molecular Devices, Sunnydale Calif., USA). […] The maximum calcium response at each concentration of compound for agonist or antagonist were plotted as dose responses and the curves were fitted with a four parameter logistic equation giving IC50 and Hill coefficient using the iterative non-linear curve fitting software ADA (Merck & Co., Inc.). Data in the following table lists the activity of each compound to inhibit glutamate-dependent mGluR2 activity in this cellular assay.

Sequence of recombinant human mGluR2 (Q14416 19-872): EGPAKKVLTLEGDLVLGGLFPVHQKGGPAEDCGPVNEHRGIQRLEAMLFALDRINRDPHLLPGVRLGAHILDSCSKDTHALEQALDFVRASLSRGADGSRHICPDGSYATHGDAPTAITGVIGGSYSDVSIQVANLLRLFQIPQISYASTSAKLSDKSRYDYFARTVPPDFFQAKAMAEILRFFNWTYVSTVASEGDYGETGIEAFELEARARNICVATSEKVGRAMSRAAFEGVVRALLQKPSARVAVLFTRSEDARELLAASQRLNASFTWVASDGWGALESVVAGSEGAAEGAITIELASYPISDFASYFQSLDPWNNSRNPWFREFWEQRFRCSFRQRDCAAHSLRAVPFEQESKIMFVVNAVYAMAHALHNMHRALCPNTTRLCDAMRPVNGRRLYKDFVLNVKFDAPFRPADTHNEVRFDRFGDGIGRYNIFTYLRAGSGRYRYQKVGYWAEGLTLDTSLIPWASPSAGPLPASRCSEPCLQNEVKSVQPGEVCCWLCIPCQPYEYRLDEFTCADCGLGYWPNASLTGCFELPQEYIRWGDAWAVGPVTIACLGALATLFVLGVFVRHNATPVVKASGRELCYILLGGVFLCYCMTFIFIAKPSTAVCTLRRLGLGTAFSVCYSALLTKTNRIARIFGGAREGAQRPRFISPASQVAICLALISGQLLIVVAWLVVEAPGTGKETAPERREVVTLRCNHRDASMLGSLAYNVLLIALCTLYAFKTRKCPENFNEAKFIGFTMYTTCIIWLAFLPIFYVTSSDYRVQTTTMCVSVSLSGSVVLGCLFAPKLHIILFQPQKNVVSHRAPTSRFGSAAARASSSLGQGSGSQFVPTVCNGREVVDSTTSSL

Row | Compound | IC50
1 | NC(=O)c1cc(-c2ccc(F)cc2F)c2c(n1)[C@@H]1CC[C@H](C2)O1 (single isomer, unassigned) [Example 1-2B] | 21 nM
2 | NC(=O)c1cc(-c2ccc(Cl)cc2F)c2c(n1)[C@H]1CC[C@@H](C2)O1 (single isomer, unassigned) [Example 1-3A, (6S,9R)- or (6R,9S)-4-(4-chloro-2-fluorophenyl)-6,7,8,9-tetrahydro-5H-6,9-epoxycyclo-hepta[b]pyridine-2-carboxamide] | 65 nM
3 | NC(=O)c1cc(-c2ccc(Cl)cc2F)c2c(n1)[C@@H]1CC[C@H](C2)O1 (single isomer, unassigned) [Example 1-3B, (6R,9S)- or (6S,9R)-4-(4-chloro-2-fluorophenyl)-6,7,8,9-tetrahydro-5H-6,9-epoxycyclo-hepta[b]pyridine-2-carboxamide] | 12 nM
4 | Cn1cc(-c2cc(C(N)=O)nc3c2CC2CCC3O2)cn1 (single isomer, unassigned) [Example 1-4A, (6R,9S)- or (6S,9R)-4-(1-methyl-1H-pyrazol-4-yl)-6,7,8,9-tetrahydro-5H-6,9-epoxycyclo-hepta[b]pyridine-2-carboxamide] | > 3000 nM
5 | Cn1cc(-c2cc(C(N)=O)nc3c2CC2CCC3O2)cn1 (single isomer, unassigned) [Example 1-4B, (6S,9R)- or (6R,9S)-4-(1-methyl-1H-pyrazol-4-yl)-6,7,8,9-tetrahydro-5H-6,9-epoxycyclo-hepta[b]pyridine-2-carboxamide] | 1770 nM
6 | NC(=O)c1cc(-c2cnn(C(F)F)c2)c2c(n1)C1CCC(C2)O1 (single isomer, unassigned) [Example 1-5A, (6R,9S)- or (6S,9R)-4-(1-(difluoromethyl)-1H-pyrazol-4-yl)-6,7,8,9-tetrahydro-5H-6,9-epoxycyclo-hepta[b]pyridine-2-carboxamide] | > 3000 nM
7 | NC(=O)c1cc(-c2cnn(C(F)F)c2)c2c(n1)C1CCC(C2)O1 (single isomer, unassigned) [Example 1-5B, (6S,9R)- or (6R,9S)-4-(1-(difluoromethyl)-1H-pyrazol-4-yl)-6,7,8,9-tetrahydro-5H-6,9-epoxycyclo-hepta[b]pyridine-2-carboxamide] | 326 nM
8 | NC(=O)c1cc(-c2ncc(F)cc2F)c2c(n1)[C@H]1CC[C@@H](C2)O1 (single isomer, unassigned) [Example 1-6A] | > 3000 nM
9 | NC(=O)c1cc(-c2ncc(F)cc2F)c2c(n1)[C@@H]1CC[C@H](C2)O1 (single isomer, unassigned) [Example 1-6B] | 1800 nM
10 | NC(=O)c1cc(-c2ncc(Cl)cc2F)c2c(n1)[C@H]1CC[C@@H](C2)O1 (single isomer, unassigned) [Example 1-7A] | > 3000 nM
11 | NC(=O)c1cc(-c2ncc(Cl)cc2F)c2c(n1)[C@@H]1CC[C@H](C2)O1 (single isomer, unassigned) [Example 1-7B] | 172 nM
12 | NC(=O)c1cc(-c2ccc(F)cc2F)c2c(n1)O[C@@H](CO)CC2 (single isomer, unassigned) [Example 2-1B] | 179 nM
13 | CC(C)[C@@H]1CCc2c(-c3ccc(F)cc3F)cc(C(N)=O)nc2O1 (single isomer, unassigned) [Example 2-4A] | 20 nM
14 | CC(C)[C@H]1CCc2c(-c3ccc(F)cc3F)cc(C(N)=O)nc2O1 (single isomer, unassigned) [Example 2-4B] | 69 nM
15 | C[C@@H]1CCc2c(-c3ccc(F)cc3F)cc(C(N)=O)nc2O1 (single isomer, unassigned) [Example 2-6A] | 10 nM
16 | C[C@H]1CCc2c(-c3ccc(F)cc3F)cc(C(N)=O)nc2O1 (single isomer, unassigned) [Example 2-6B] | 26 nM
17 | C[C@@]1(COC(F)F)CCc2c(-c3ccc(F)cc3F)cc(C(N)=O)nc2O1 (single isomer, unassigned) [Example 2-8A] | 8 nM
18 | C[C@]1(COC(F)F)CCc2c(-c3ccc(F)cc3F)cc(C(N)=O)nc2O1 (single isomer, unassigned) [Example 2-8B] | 14 nM

Reference: US10335399B2, “Chromane, isochromane and dihydroisobenzofuran derivatives as mGluR2—negative allosteric modulators, compositions, and their use” (Merck Sharp & Dohme Corp., priority 2016, dated 2019)
